The values that follow come from patent US20080213376A1, “Medicament that is Intended for Oral Administration, Comprising a Cyclooxygenase-2 Inhibitor, and Preparation Method Thereof” (VETOQUINOL, priority 2005, published 2008).

The nature of the series: Solubility by HPLC in approximately 0.1N HCl medium. As to conditions: simulated gastric fluid, thermodynamic from solid, HPLC technique. Type of series: physicochemical. Here is the method:
By way of indication, the solubility S0 of the cimicoxib powder alone and the solubility S2 of the particle agglomerate according to this second example of the invention were measured by the HPLC (high performance liquid chromatography) technique and in an approximately 0.1N HCl medium, with the following results (solubilities in milligrams/liter):
By way of indication, the solubility S5 of this particle agglomerate according to this fifth example of the invention was compared to the solubility S0 of the cimicoxib powder alone by the HPLC technique and in an approximately 0.1N HCl medium, with the following results (milligrams/liter): […]

Values after ≈ are worked out from the molar mass of the structure shown.

`COc1ccc(-c2c(Cl)ncn2-c2ccc(S(N)(=O)=O)cc2)cc1F` [cimicoxib powder alone, cimicoxib] gave a solubility of 3.1 µg/mL (≈ 8.12 µM).

For orientation: solubility means how much of the substance goes into solution per volume. A lower solubility goes with a poorly soluble substance.
